# Values quoted from earlier work in PMC8894159, “Paltusotine, a novel oral once-daily nonpeptide SST2 receptor agonist, suppresses GH and IGF-1 in healthy volunteers” (Pituitary, 2022).
# How the values were obtained:
# IGF-1 = system: IGF-1; set-up: method as in PMID 25664604; conditions: twice-daily oral preparation; patients previously controlled on depot preparations; cited from earlier work
# [1] = set-up: method as in PMID 25260838; conditions: patients taking pasireotide; cited from earlier work
Substance,patients maintaining IGF-1 control (IGF-1) [%],patients with hyperglycemia/diabetes [1]
octreotide,58,–
pasireotide,–,approximately 57%
